Test results as given in the NIST ThermoML archive (doi:10.1016/j.jct.2013.09.020).

Settings: Liquid, Calculated from knudsen effusion weight loss

Cn1cc[n+](C)c1.O=S(=O)([N-]S(=O)(=O)C(F)(F)F)C(F)(F)F [1,3-dimethylimidazolium bis((trifluoromethyl)sulfonyl)amide]
Settings | vapor or sublimation pressure [kPa]
475.62 K | 4.15e-05
477.6 K | 4.7e-05
479.6 K | 5.33e-05
481.59 K | 6.01e-05
483.59 K | 6.78e-05
485.6 K | 7.63e-05
487.6 K | 8.56e-05
489.62 K | 9.57e-05
491.67 K | 0.0001095
493.68 K | 0.0001225

CCC[n+]1ccn(CC)c1.O=S(=O)([N-]S(=O)(=O)C(F)(F)F)C(F)(F)F
Settings | vapor or sublimation pressure [kPa]
463.58 K | 4.86e-05
465.61 K | 5.55e-05
467.59 K | 6.29e-05
469.6 K | 7.12e-05
471.62 K | 8.07e-05
473.62 K | 9.11e-05
475.62 K | 0.0001034
477.63 K | 0.0001172
479.56 K | 0.0001311
481.58 K | 0.0001487
483.6 K | 0.0001651
485.61 K | 0.0001872
487.62 K | 0.0002112
489.62 K | 0.0002364
